The numbers were not newly measured in patent publication US20170042890A1, “METHODS OF REDUCING DECLINE IN VITAL CAPACITY” (Cytokinetics, Inc., priority 2014, published 2017), which cites them from elsewhere.

In one data set the test system is ALS. Particulars: cited from earlier work.
The conditions of data set [1]: administered concomitantly with tirasemtiv; prior studies; cited from earlier work.

As to `Nc1nc2ccc(OC(F)(F)F)cc2s1` [riluzole], the “Effect on measurable parameters of neuromuscular or pulmonary function” value with ALS is listed as “does not improve”. For the same compound, in data set [1], the Riluzole exposure entry is reported as “approximately doubled”.
